A short description of the series: in vivo. As to conditions: female, Sprague-Dawley, rat, sc, 10 mg/kg. The protocol:
The rats were housed in a holding room which operated on a 12-hr light/12-hr dark circadian cycle with free access to water and food.
Plasma samples were obtained by centrifugation, kept frozen at −80° C. and analyzed using a noncompartmental analysis model in PKSolver (Comput Methods Programs Biomed. 2010; 99(3):306-314).

In general, AUC(0-inf) refers to the area under the concentration-time curve extrapolated to infinity. A lower AUC(0-inf) goes with less exposure. By AUC(0-t) is commonly meant the area under the concentration-time curve up to a stated or last time point. High values mean more exposure, low ones less exposure. As usually defined, the Cmax is the highest concentration seen after dosing. Consider `Cc1nc2n(c(=O)c1CCN1CCC(c3noc4cc(F)ccc34)CC1)CCCC2` [Risperidone, risperidone], for which the AUC(0-inf) was 13300 ng·h/mL, the AUC(0-t) is 13200 ng·h/mL and the peak level (Cmax) was 4510 ng/mL. Moreover, under “8 h”, the “drug released, indicated by AUC0-t” value is 100%.

(Values after US12285524B2, “Sustained-release pharmaceutical compositions comprising an antipsychotic drug and uses thereof” (priority 2018, dated 2025).)
